Patent US6537948B1, “Uracil compounds and use thereof” (Sumitomo Chemical Company, Limited, priority 2000, dated 2003)

Assays:
[1] = test system: barnyardgrass (Echinochloa crus-galli); experiment: Test Example 5: foliar treatment of field; type: in vivo; settings: foliar spray, dosage 16 g/ha, 6 days after application
Experimental: (§1) A plastic pot having longer side of 27 cm, shorter side of 20 cm and depth of 7.5 cm was filled with soil and then seeded with ivyleaf morningglory (Ipomoea hederacea) and common cocklebur (Xanthium pensylvanicum). Three days after, barnyardgrass (Echinochloa crus-galli) was seeded therein and grown for 7 days in a greenhouse. Then, therein, transplanted were common lambsquarters (Chenopodium album), redroot pigweed and giant foxtail (Setaria faberi) which had been seeded and grown for 14 days in a green house in advance. The test plants were further grown in the greenhouse for 8 days. After then, present compound 7-7 was formulated into an emulsifiable concentrate according to Formulation Example 2 and then diluted to the prescribed amount with water containing a spreading agent and the dilution was uniformly sprayed over the foliage of the test plants with a sprayer at a rate of 1000 liters per hectare. After the application, the test plants were grown in the greenhouse for 6 days, and the herbicidal activity was examined.

[2] = test system: common cocklebur (Xanthium pensylvanicum); experiment: Test Example 5: foliar treatment of field; type: in vivo; settings: foliar spray, dosage 16 g/ha, 6 days after application
Experimental: as §1

[3] = test system: ivyleaf morningglory (Ipomoea hederacea); experiment: Test Example 5: foliar treatment of field; type: in vivo; settings: foliar spray, dosage 16 g/ha, 6 days after application
Experimental: as §1

[4] = test system: giant foxtail (Setaria faberi); experiment: Test Example 5: foliar treatment of field; type: in vivo; settings: foliar spray, dosage 16 g/ha, 6 days after application
Experimental: as §1

[5] = test system: common lambsquarters (Chenopodium album); experiment: Test Example 5: foliar treatment of field; type: in vivo; settings: foliar spray, dosage 16 g/ha, 6 days after application
Experimental: as §1

[6] = test system: redroot pigweed; experiment: Test Example 5: foliar treatment of field; type: in vivo, Amaranthus retroflexus; settings: foliar spray, dosage 16 g/ha, 6 days after application
Experimental: as §1

[7] = test system: redroot pigweed; experiment: Test Example 3: foliar treatment of field; type: in vivo, Amaranthus retroflexus; settings: foliar spray, dosage 16 g/ha, 25 days after application
Experimental: as §1, with “These test plants were” for “Three days after, barnyardgrass (Echinochloa crus-galli) was seeded therein and”, “grown” for “grown for 7 days”, “greenhouse for 10 days.” for “greenhouse.”, “1-12” for “7-7”, “25” for “6”

[8] = test system: black nightshade (Solanum nigrum); experiment: Test Example 4: soil surface treatment of field; type: in vivo; settings: soil surface spray, dosage 250 g/ha, 25 days after application
Source text: (§2) A plastic pot having longer side of 32 cm, shorter side of 22 cm and depth of 8 cm was filled with soil and then seeded with hemp sesbania (Sesbania exaltata), black nightshade (Solanum nigrum), velvetleaf (Abutilon theophrasti), pale smartweed (Polygonum lapathifolium), common lambsquarters (Chenopodium album) and giant foxtail (Setaria faberi). Then, the present compound 1-12 was formulated into an emulsifiable concentrate according to Formulation Example 2 and then diluted to the prescribed amount with water, and the dilution was uniformly sprayed over the surface of the soil with a sprayer at a rate of 1000 liters per hectare. After the application, the test plants were grown in the greenhouse for 25 days, and the herbicidal activity was examined.

[9] = test system: velvetleaf (Abutilon theophrasti); experiment: Test Example 4: soil surface treatment of field; type: in vivo; settings: soil surface spray, dosage 250 g/ha, 25 days after application
Source text: as §2

[10] = test system: pale smartweed (Polygonum lapathifolium); experiment: Test Example 4: soil surface treatment of field; type: in vivo; settings: soil surface spray, dosage 250 g/ha, 25 days after application
Source text: as §2

[11] = test system: giant foxtail (Setaria faberi); experiment: Test Example 4: soil surface treatment of field; type: in vivo; settings: soil surface spray, dosage 250 g/ha, 25 days after application
Source text: as §2

[12] = test system: common lambsquarters (Chenopodium album); experiment: Test Example 4: soil surface treatment of field; type: in vivo; settings: soil surface spray, dosage 250 g/ha, 25 days after application
Source text: as §2

[13] = test system: hemp sesbania (Sesbania exaltata); experiment: Test Example 4: soil surface treatment of field; type: in vivo; settings: soil surface spray, dosage 250 g/ha, 25 days after application
Source text: as §2

[14] = test system: common cocklebur (Xanthium pensylvanicum); experiment: Test Example 3: foliar treatment of field; type: in vivo; settings: foliar spray, dosage 16 g/ha, 25 days after application
Experimental: as §1, with “These test plants were” for “Three days after, barnyardgrass (Echinochloa crus-galli) was seeded therein and”, “grown” for “grown for 7 days”, “greenhouse for 10 days.” for “greenhouse.”, “1-12” for “7-7”, “25” for “6”

[15] = test system: ivyleaf morningglory (Ipomoea hederacea); experiment: Test Example 3: foliar treatment of field; type: in vivo; settings: foliar spray, dosage 16 g/ha, 25 days after application
Experimental: as §1, with “These test plants were” for “Three days after, barnyardgrass (Echinochloa crus-galli) was seeded therein and”, “grown” for “grown for 7 days”, “greenhouse for 10 days.” for “greenhouse.”, “1-12” for “7-7”, “25” for “6”

[16] = test system: giant foxtail (Setaria faberi); experiment: Test Example 3: foliar treatment of field; type: in vivo; settings: foliar spray, dosage 16 g/ha, 25 days after application
Experimental: as §1, with “These test plants were” for “Three days after, barnyardgrass (Echinochloa crus-galli) was seeded therein and”, “grown” for “grown for 7 days”, “greenhouse for 10 days.” for “greenhouse.”, “1-12” for “7-7”, “25” for “6”

[17] = test system: common lambsquarters (Chenopodium album); experiment: Test Example 3: foliar treatment of field; type: in vivo; settings: foliar spray, dosage 16 g/ha, 25 days after application
Experimental: as §1, with “These test plants were” for “Three days after, barnyardgrass (Echinochloa crus-galli) was seeded therein and”, “grown” for “grown for 7 days”, “greenhouse for 10 days.” for “greenhouse.”, “1-12” for “7-7”, “25” for “6”

[18] = test system: johnsongrass (Sorghum halepense); experiment: Test Example 8: foliar spray, herbicidal activity index; type: in vivo; parameters: key: “0” means that there was no or little difference in the degree of germination or growth between the treated and the untreated tested plants at the time of examination; “10” means that the test plants died complete or their germination or growth was completely inhibited; settings: foliar spray 373 liters per hectare, examined after 4 days, index 0-10
Experimental: (§3) A plastic pot having longer side of 16.5 cm, shorter side of 12 cm and depth of 7 cm was filled with soil and then seeded with large crabgrass (Digitaria sanguinalis), giant foxtail (Setaria faberi) and johnsongrass (Sorghum halepense). These test plants were grown in a greenhouse for 25 days. Then, each of the present compound 2-52 and C was formulated into an emulsifiable concentrate according to Formulation Example 2 and then diluted to the prescribed amount with water containing a spreading agent and the dilution was uniformly sprayed over the foliage of the test plants with a sprayer at a rate of 373 liters per hectare. After the application, the test plants were grown in the greenhouse for 4 days, and the herbicidal activity was examined. (In the Table 14, the test plants are shown as follows.
(§4) Large crabgrass: LC, Giant foxtail: GF, Johnsongrass: J

[19] = test system: giant foxtail (Setaria faberi); experiment: as above; type: in vivo; parameters: key: “0” means that there was no or little difference in the degree of germination or growth between the treated and the untreated tested plants at the time of examination; “10” means that the test plants died complete or their germination or growth was completely inhibited; settings: foliar spray 373 liters per hectare, examined after 4 days, index 0-10
Experimental: as §3, §4

[20] = test system: large crabgrass (Digitaria sanguinalis); experiment: as above; type: in vivo; parameters: key: “0” means that there was no or little difference in the degree of germination or growth between the treated and the untreated tested plants at the time of examination; “10” means that the test plants died complete or their germination or growth was completely inhibited; settings: foliar spray 373 liters per hectare, examined after 4 days, index 0-10
Experimental: as §3, §4

With COC(=O)COc1ncccc1Oc1cc(-n2c(=O)cc(C(F)(F)F)n(C)c2=O)c(F)cc1Cl [Compound 7-7, 3-{2-chloro-4-fluoro-5-[3-methyl-2,6-dioxo-4-(trifluoromethyl)-1,2,3,6-tetrahydropyrimidin-1-yl]phenoxy}-2-(methoxycarbonyl)methoxypyridine] the melting point was 52.2 °C, the “growth of barnyardgrass (herbicidal activity)” value [1] was “completely controlled” and the “growth of common cocklebur (herbicidal activity)” value [2] was “completely controlled”. The “growth of ivyleaf morningglory (herbicidal activity)” value [3] was “completely controlled”, the “growth of giant foxtail (herbicidal activity)” value (from here on “growth of giant foxtail”) [4] was “completely controlled” and the “growth of common lambsquarters (herbicidal activity)” value (“growth of common lambsquarters” below) [5] was “completely controlled”. For the same molecule, the “growth of redroot pigweed (herbicidal activity)” value [6] was “completely controlled”.

With COC(=O)C(C)Oc1cnc(Oc2cc(-n3c(=O)cc(C(F)(F)F)n(C)c3=O)c(F)cc2Cl)nc1 (stereo not drawn) [Compound 1-12, methyl 2-([2-{2-chloro-4-fluoro-5-[3-methyl-2,6-dioxo-4-(trifluoromethyl)-1,2,3,6-tetrahydropyrimidin-1-yl]phenoxy}pyrimidin-5-yl]oxy)propionate] the “growth of redroot pigweed (herbicidal activity)” value [7] was “completely controlled”, the “growth of black nightshade (herbicidal activity)” value [8] was “completely controlled” and the “growth of velvetleaf (herbicidal activity)” value [9] was “completely controlled”. For the same molecule, the “growth of pale smartweed (herbicidal activity)” value [10] was “completely controlled”, the “growth of giant foxtail” value [11] was “completely controlled” and the “growth of common lambsquarters” value [12] was “completely controlled”. The “growth of hemp sesbania (herbicidal activity)” value [13] was “completely controlled”, the “growth of common cocklebur (herbicidal activity)” value [14] was “completely controlled” and the “growth of ivyleaf morningglory (herbicidal activity)” value [15] was “completely controlled”. The “growth of giant foxtail” value [16] was “completely controlled” and the “growth of common lambsquarters” value [17] was “completely controlled”.

With COC(=O)C(C)Nc1cccnc1Oc1cc(-n2c(=O)cc(C(F)(F)F)n(C)c2=O)c(F)cc1Cl (stereo not drawn) [Compound 2-52, 2-{2-chloro-4-fluoro-5-[3-methyl-2,6-dioxo-4-(trifluoromethyl)-1,2,3,6-tetrahydropyrimidin-1-yl]phenoxy}-3-{1-(methoxycarbonyl)ethylamino}pyridine] the “Herbicidal activity J” value ([18]; dosage 32 g/ha) was 10, the “Herbicidal activity J” value ([18]; dosage 125 g/ha) was 10 and the “Herbicidal activity GF” value ([19]; dosage 32 g/ha) was 9. For the same molecule, the “Herbicidal activity GF” value ([19]; dosage 125 g/ha) was 10, the “Herbicidal activity LC” value ([20]; dosage 32 g/ha) was 9 and the “Herbicidal activity LC” value ([20]; dosage 125 g/ha) was 10.

In the case of CC(=O)Nc1cccnc1Oc1cc(-n2c(=O)cc(C(F)(F)F)n(N)c2=O)c(F)cc1Cl [C, reference compound], the “Herbicidal activity J” value ([18]; dosage 32 g/ha) was 8, the “Herbicidal activity J” value ([18]; dosage 125 g/ha) was 10 and the “Herbicidal activity GF” value ([19]; dosage 32 g/ha) was 6. The “Herbicidal activity GF” value ([19]; dosage 125 g/ha) was 9, the “Herbicidal activity LC” value ([20]; dosage 32 g/ha) was 7 and the “Herbicidal activity LC” value ([20]; dosage 125 g/ha) was 9.
